We go through two compounds from patent US20230157991A1, “PHARMACEUTICAL COMPOSITION FOR TREATING ACUTE AND CHRONIC PAIN, CONTAINING POLMACOXIB AND TRAMADOL” (CrystalGenomics, Inc., priority 2017, published 2023).

The subject of series [1] is MIA-induced osteoarthritis rat model (mechanical allodynia). As to the kind of experiment: Analgesic efficacy: paw withdrawal threshold (Von Frey, dynamic plantar aesthesiometer) in MIA-induced osteoarthritis rats. The class given is in vivo, Sprague Dawley rats. The note with it: G3 acetaminophen 300 mg/kg+tramadol HCl 30 mg/kg, G4 polmacoxib 0.3 mg/kg, G5 tramadol HCl 30 mg/kg. As to the method: To evaluate analgesic efficacy, paw withdrawal threshold (PWT, g) was measured using a dynamic planter aesthesiometer (Ugo Basile S.R.L, Italy).
Von Frey filament used in this experiment has a constant pressure during bending, thereby imparting a constant stimulation. At this time, physical allodynia appears as an avoidance response, thereby enabling quantification of the pain index.
1) The pain suppression effect was measured by imparting physical stimulation with Von Frey filament using Dynamic plantar aesthesiometer (UGO BASILE 37450, Italy).
2) Rats were placed individually in each acrylic cage, allowing the rats to stay for 15 minutes to habituate to the new environment.
3) After habituation, the aesthesiometer was set to 0 ˜ 50 g and 0 ˜ 20 s. The measurement of allodynia by stimulation of the stimulator is performed by stimulating the bottom part of the affected foot, increasing the force incrementally (0-50 g), and measuring the hind paw withdraw threshold (force at the moment when the test body avoided the stimulator:gram) in triplicate at 5 min intervals.
4) The paw withdrawal threshold (PWT) was measured in duplicate at a fixed time within 2 weeks (day 10) and within 3 weeks (day 17) after administration of the test substance.

In series [2] the test system is MIA-induced osteoarthritis rat model (tissues of liver and stomach). As to the kind of experiment: Histopathology of stomach and liver (H&E). The class given is in vivo, Sprague Dawley rats. The note with it: G5 tramadol HCl 30 mg/kg; for gastric tissue analysis / gastric irritation, summary in words / epithelial detachment of cardiac gland (stomach histopathology): G4 polmacoxib 0.3 mg/kg; for gastric tissue analysis / gastric irritation, summary in words: co-administration groups G6 and G7 (both doses); for epithelial detachment of cardiac gland (stomach histopathology): mild level in G3 and G4, G3 acetaminophen 300+tramadol HCl 30 mg/kg. The text has this:
Tissue sections were stained for histological evaluation.
1) Tissues of liver and stomach among isolated organs were sufficiently immobilized in 10% neutral buffered formalin solution, followed by general tissue treatment procedures such as trimming, dehydration and paraffin embedding to prepare tissue sections and cut them to about 4 μm. Thereafter, they were stained with Hematoxylin & Eosin (H&E) and examined microscopically.

The subject of series [3] is MMP-3. The following applies: MIA osteoarthritis SD rats, oral once daily 3 weeks.
The test system of series [4] is MIA-induced osteoarthritis rat model (knee joint). Put plainly: Histological evaluation of knee joint (H&E, safranin O-fast green, modified Mankin score). The class given is in vivo, Sprague Dawley rats. The following applies: compared to positive control group G3; G5 tramadol HCl 30 mg/kg, co-administration groups G6 and G7 (both doses). As to the method:
2) The collected knee joint tissues were immobilized in 10% formalin for 24 hours, and decalcificated for 72 hours while exchanging the solution with 10% formic acid at a 24-hour time interval prior to tissue treatment. The sagittal section of the knee joint was prepared through a coronal section so that the medial and lateral condyle articular surface of femur and tibia were well identified.
3) Subsequently, after a general tissue treatment procedure such as dehydration, clearing and penetration, paraffin embedding was performed and a 5 μm thin slice of knee joint was prepared with a rotary microtome. It was subject to deparaffinization and hydration, followed by Hematoxylin & Eosin (H&E) staining.
4) For safranin-O fast green (SOFG) staining, after deparaffinization and hydration, the thin slice of knee joint was reacted in Weigert's iron hematoxylin solution (HT110232, Sigma, St Louis, USA) for 10 minutes and washed with water, and then stained in 0.02% fast green (FCF) solution (F7258, Sigma, St Louis, USA) for 5 minutes. Subsequently, it was reacted in 1% acetic acid solution and then stained with 0.1% safranin O solution (S2255, Sigma, St Louis). The slide stained with safranin O-fast green was washed for 5 minutes to have clear color of nucleus. After dehydration and clarification, it was sealed. […]

In series [5] the test system is MIA-induced osteoarthritis rat model (stomach, liver). Put plainly: Gross necropsy observation after completion of the experiment. The following applies: n=10 per group, G5 tramadol HCl 30 mg/kg, oral once daily 3 weeks.
The nature of series [6]: Body weight change and clinical observation in MIA-induced osteoarthritis rat model. The following applies: MIA osteoarthritis SD rats, oral once daily 3 weeks; G3 acetaminophen 300 mg/kg+tramadol HCl 30 mg/kg, G4 polmacoxib 0.3 mg/kg, G5 tramadol HCl 30 mg/kg.
Protocol: In order to evaluate therapeutic effect of osteoarthritis, an animal model of osteoarthritis was prepared in Sprague Dawley rats (n=10 per group).
1) Monosodium iodoacetate (MIA, I2512, Sigma, Poole, UK) was dissolved in 0.9% sterile saline for injection at a concentration of 60 mg/ml and prepared on the day of the experiment (day 0).
2) After group separation, animals (Sprague Dawley rats) were placed in an anesthesia chamber (Matrix, US/VME-2) and anesthetized using diethyl ether. Thereafter, subjects in the induced group (G2 to G9) were injected once with 50 μl of MIA per subject (MIA 3 mg/head) into a left knee joint space via a patellar tendon using an insulin syringe (BD™ insulin syringe with Ultra-Fine™ Short Needle, 31 gauge). The number of animals in each group was 10, and the negative control group (G1) was injected once with 50 μl of saline at the same position in the left knee joint.
Group separation was performed only on animals judged to have no quarantine abnormalities during acclimation period, followed by MIA administration. On the 6th day after MIA administration, the weight bearing of hind leg for a total of 100 subjects administered with MIA was measured and the affected subjects with high weight bearing of left hind leg were sequentially excluded to select 70 subjects. […]
Where [7] appears, read: 10-day evaluation, induced group G2 14.7 g.
Setting [8] is: second evaluation (time not given; day 17 per method).

`CC1(C)OC(c2ccc(S(N)(=O)=O)cc2)=C(c2cccc(F)c2)C1=O` [polmacoxib, 5-(4-(aminosulfonyl)-phenyl)-2,2-dimethyl-4-(3-fluorophenyl)-3(2H)-furanone]: the “paw withdrawal threshold (PWT)” value in series [1] (setting [7]) and in series [1] (setting [8]) was 24.2 g each time. Further, the “gastric tissue analysis / gastric irritation, summary in words” value in series [2] is listed as “epithelial detachment of pyloric”. In series [2] (n=10 per group), the “epithelial detachment of cardiac gland (stomach histopathology)” value was 4 cases. The “level of MMP-3 in serum obtained after 3 weeks of treatment, in words” value in series [3] was “lower MMP-3 levels compared to the groups G3 and G5”.
On to `COc1cccc(C2(O)CCCCC2CN(C)C)c1.Cl` (stereo not drawn) [tramadol hydrochloride, 2-(dimethylaminomethyl)-1-(3-methoxyphenyl)], for which the “paw withdrawal threshold (PWT)” value in series [1] (setting [7]) and in series [1] (setting [8]) was 26.3 g in each case. Moreover, in series [2], the “gastric tissue analysis / gastric irritation, summary in words” value is “epithelial detachments of cardia and pyloric and erosion”. Moreover, the “erosion of cardiac gland and fundic gland (stomach histopathology)” value in series [2] (n=10 per group, oral once daily 3 weeks) was 4 cases. In addition, the “epithelial detachment of cardiac gland (stomach histopathology)” value in series [2] (n=10 per group) was found to be 2 cases. Moreover, the “cluster formation of chondrocytes, in words” value in series [4] is “improvement effects compared to the positive control group G3”. In series [5] (G3 acetaminophen 300 mg/kg+tramadol HCl 30 mg/kg), the “gastric wall thickening at gross necropsy” value was found to be 3 cases. Besides, the “gastric mucosal petechial hemorrhage at gross necropsy” value in series [5] (G3 acetaminophen 300+tramadol HCl 30 mg/kg, G7 polmacoxib 0.3+tramadol HCl 30 mg/kg) stood at 3 cases. Moreover, the “nodules on the surface of liver at gross necropsy” value in series [5] is 1 case. Moreover, in series [6], the “weight gain at end of test compared to average weight at beginning” value was found to be 18.5%.
